What was measured:
[1] = tested on: experimental asthma model of animals; assay: experimental asthma model of animals; type: in vivo
mouse = assay: intraperitoneal acute toxicity test in mouse (Test Example 2); type: in vivo, mouse (Slc: ddy male); conditions: 14 days observation, five mice per group
Procedure: (§1) Fifty % inhibitory dose (ID50) in Passive Cutaneous Anaphylaxis (PCA) test in rat (Test Example 1) and Minimal Lethal Dose (MLD) in intraperitoneal acute toxicity test in mouse (Test Example 2) were determined for the typical compounds of the present invention as follows:
The intraperitoneal actute toxicity test was carried out using mouse for the chromene derivatives of the present invention. Normal Slc: ddy male 4 weeks mice were preliminarily breeded for a week at a breeding room and those weighing 25 to 27 g were subjected to the test. The test compounds were used by suspending in 0.5% aqueous solution of sodium carboxymethylcellulose. Ten ml/kg was administered intraperitoneally through the right abdomen of the animal using the prescribed needle (five mice per group). The lethal dose was presumed by the observation during 14 days after administration.

[2] = tested on: passive cutaneous anaphylaxis by homocytotropic antibody (HTA); assay: Passive Cutaneous Anaphylaxis (PCA) test in rat (Test Example 1); type: in vivo, rat (Wistar); conditions: 0.5 h, 72 hour PCA, intravenous just before antigen, sacrificed 30 minutes after antigen challenge, read-out: ID50 (fifty % inhibitory dose for the leaked amount of the pigment)
Procedure: as §1
The antiallergic activities of the chromene derivatives of the present invention were tested in passive cutaneous anaphylaxis (hereinafter referred to as "PCA") by homocytotropic antibody (hereinafter referred to as "HTA").
DNP-As(2,4-dinitro phenyl-coupled Ascaris extract) was prepared according to the method by Strejan et al. (J. Immunol. Vol. 98, P 893, (1967)) and by Eisen (J. Amer. Chem. Soc. Vol. 75, P 4593, (1953)) to be used as antigen. Antiserum containing HTA was prepared by the method according to Tada and Okumura (J. Immunol. Vol. 106, P 1002, (1972)) as follows: i.e. spleen was taken out from Wistar female rat weighing 180 to 200 g and several days after 1 mg of DNP-As and 1×10^10 of Bordetella pertussis vaccine were injected into four footpads of the rat to induce senitization. After five days, again 0.5 mg of DNP-As was solely injected into the dorsal muscles. Eight days after priming, blood was taken by paracentesis of aorta under anesthetic condition with ether and the obtained antiserum was stored at -80° C.
Titer of the stored antiserum was determined by 72 hour PCA method in rat as described in the following item (2). The maximal dilution of the antiserum which can give a spot with a diameter of around 5 mm was usually 500 times.
The diluted antiserum (×30) was injected 0.05 ml/site intradermally into the shaved back of normal Wistar rat weighing 140 to 160 g. After 72 hours, 1 ml of physiological saline containing 2 mg of DNP-As and 2.5 mg of Evans blue was injected intravenously.
Test compound was dissolved in 0.5% aqueous solution of KHCO3, which was administered intravenously in an amount of 2 ml/kg just before the administration of the antigen. The animal was sacrificed 30 minutes after antigen challenge and the cutis was peeled off. The intensity of PCA was evaluated for the measurment of the leaked amount of the pigment. The leaked pigment was extracted according to the method by Harada et al. (Jpn. J. Allergol., Vol. 15, P 1, (1966)) and the leaked amount was measured by spectrophotometry. Fifty % inhibitory dose for the leaked amount of the pigment was regarded as ID50 value of the test compound.

Compound	inhibitory effect in experimental asthma model [1]	MLD (Minimal Lethal Dose) (mouse) [mg/kg]	ED50 [2] [mg/kg]
O=C(O)CCCOc1cccc2cc(-c3nnn[nH]3)c(=O)oc12 [Compound B, 4-[2-oxo-3-(1H-tetrazole-5-yl)-2H-chromene-8 yloxy]butyric acid]	inhibitory effect in high degree	> 1600	0.1
O=C(O)CCCCCOc1ccc2oc(=O)c(-c3nnn[nH]3)cc2c1 [Compound F, 6-[2-oxo-3-(1H-tetrazole-5-yl)-2H-chromene-6-yloxy]hexanoic acid]		> 1600	0.16
O=C(O)CCCOc1ccc2oc(=O)c(-c3nnn[nH]3)cc2c1 [Compound C, 4-[2-oxo-3-(1H-tetrazole-5-yl)-2H-chromene-6-yloxy]butyric acid]		> 1500	0.1
O=C(O)CCCCCOc1cccc2oc(=O)c(-c3nnn[nH]3)cc12 [Compound G, 6-[2-oxo-3-(1H-tetrazole-5-yl)-2H-chromene-5-yloxy]hexanoic acid]		> 1500	0.2
O=C(O)CCCCCOc1ccc2cc(-c3nnn[nH]3)c(=O)oc2c1 [Compound E, 6-[2-oxo-3-(1H-tetrazole-5-yl)-2H-chromene-7-yloxy]hexanoic acid]		> 1500	0.2
O=C(O)COc1cccc2cc(-c3nnn[nH]3)c(=O)oc12 [Compound A, [2-oxo-3-(1H-tetrazole-5-yl)-2H-chromene-8-yloxy]acetic acid]		> 1000	0.5
O=C(O)CCCCCOc1cccc2cc(-c3nnn[nH]3)c(=O)oc12 [Compound D, 6-[2-oxo-3-(1H-tetrazole-5-yl)-2H-chromene-8-yloxy]hexanoic acid]		> 1600	0.16

— US4731375A, “Coumarin derivatives and antiallergic agents containing the same” (Kaken Pharmaceutical Co., Ltd., priority 1984, dated 1988)
